This is an account of results in US6861524B2, “Acyl and sulfonyl derivatives of 6,9-disubstituted 2-(trans-1,4-diaminocyclohexyl)-purines and their use as antiproliferative agents” (Aventis Pharmaceuticals Inc., priority 2000, dated 2005).

The test system of assay [1] is PC12 cells, or rat sympathetic neurons. The note with it: Park et al. 1997, cited from earlier work; for concentration giving maximal protection from death: camptothecin-treated PC12 cells or rat sympathetic neurons; for cell death at day 6: camptothecin-treated neuronal cells.
The subject of the next assay is SMC. The note with it: in vitro and in vivo; Ruef et al. 1999; cited from earlier work.
In the next assay the target is cdk4/cyclin D1 (Homo sapiens, UniProt P11802). The assay is described as follows: Cyclin-dependent kinase assay, cdk4/cyclin D1 (GST-pRb substrate). It counts as biochemical.
For the next assay, the system named is MDA-MB-435. The assay is described as follows: In vitro proliferation assay (MTT), MDA-MB-435. In kind it is cell-based, human. The note with it: mean (SD, n) where given, read-out: MB-435 Breast (IC50 μM). The method, then: (§1) The proliferation of tumor cells can be measured using a tetrazolium salt-based assay known as the MTT (3-[4,5-Dimethylthiazol-2-yl]-2,5-diphenyltetrazolium bromide) assay. […] For the assay, the cell lines are plated onto 96 well plates at 1000 to 2500 cells/well (depending on the properties of the individual cell lines), left to attach and recover overnight. […] After 3 days, the cells are incubated with MTT dye (3-[4,5-Dimethylthiazol-2-yl]-2,5-diphenyltetrazolium bromide, Sigma #M5655, 10 mg/ml in Hank's Buffered Saline) to estimate the amount of live cells remaining vs. concentration for the test compounds. […] The MTT and culture medium is then removed from the cultures and 200 μl of DMSO is added to solubilize the dye from the cell layer. The absorbance at 570 nm is determined for each culture using a Spectramax plate reader (Molecular Devices).
(§2) IC50s were determined from the raw data from either the MTT or SRB assays.
(§3) All of the cell lines were obtained from American Type Tissue Collection, with the ATCC accession number in parentheticals. MCF-7 and MDA-MB-231 cells were grown in improved minimum essential medium (Biofluids) without phenol red, supplemented with 5% fetal bovine serum, 0.01 mg/ml gentamicin and 3 mM L-glutamine.

The next assay has as its system NCI-H460. The assay is described as follows: In vitro proliferation assay (MTT), NCI-H460. The note with it: read-out: H-460 Lung (IC50 μM). In kind it is cell-based, human. The method, then:
(§4) The proliferation of tumor cells can be measured using a tetrazolium salt-based assay known as the MTT (3-[4,5-Dimethylthiazol-2-yl]-2,5-diphenyltetrazolium bromide) assay. The proliferation test is performed essentially as described by Carmichael et al., Cancer Res. 47: 936-942, 1987. For the assay, the cell lines are plated onto 96 well plates at 1000 to 2500 cells/well (depending on the properties of the individual cell lines), left to attach and recover overnight. […] After 3 days, the cells are incubated with MTT dye (3-[4,5-Dimethylthiazol-2-yl]-2,5-diphenyltetrazolium bromide, Sigma #M5655, 10 mg/ml in Hank's Buffered Saline) to estimate the amount of live cells remaining vs. concentration for the test compounds. Specifically, MTT solution is added to a final concentration of […] and the plates incubated at 37 C for 2 to 4 hr. The MTT and culture medium is then removed from the cultures and 200 μl of DMSO is added to solubilize the dye from the cell layer. The absorbance at 570 nm is determined for each culture using a Spectramax plate reader (Molecular Devices).
as §2
(§5) All of the cell lines were obtained from American Type Tissue Collection, with the ATCC accession number in parentheticals. […]

The test system of another assay is PC-3. The assay can be described thus: In vitro proliferation assay (MTT), PC-3. The note with it: MTT assay; mean (SD, n) where given; read-out: PC-3 Prostate (IC50 μM). It counts as cell-based, human. The procedure:
as §1, §2, §3

For the next assay, the system named is Colo-205. The assay is described as follows: In vitro proliferation assay (MTT), Colo-205. It counts as cell-based. The note with it: read-out: Colo-205 Colon (IC50 μM). The method, then: as §4, §2
The next assay concerns the target cdk2/cyclin E (Homo sapiens, UniProt P24941). The assay is described as follows: Cyclin-dependent kinase assay, cdk2/cyclin E (GST-pRb substrate). The note with it: read-out: CDK2 IC50; inhibition of cyclin E/CDK 2 enzyme activity.
In the next assay the target is cdk1/cyclin B (Homo sapiens, UniProt P06493). The assay can be described thus: Cyclin-dependent kinase assay, cdk1/cyclin B (Histone H1 substrate). The note with it: read-out: CDK1 IC50; inhibition of cyclin B/CDK 1 enzyme activity.
In another assay the test system is HL-60. The assay is described as follows: In vitro proliferation assay (MTT), HL-60. It counts as cell-based, human. The note with it: read-out: HL-60 Leuk. (IC50 μM). The method, then:
as §4, §2, §5

In another assay the test system is Jurkat. The assay is described as follows: In vitro proliferation assay (MTT), Jurkat. In kind it is cell-based, human. The note with it: read-out: Jurkat Leuk. (IC50 μM). The procedure: as §4, §2, §5
For assay [2], the system named is PC-3 human prostate tumors. The assay is described as follows: PC-3 human prostate tumor xenograft in nude mice. In kind it is in vivo. The note with it: Table 5, control 1308 ± 852. The method, then:
(§6) Antitumor efficacy is assessed using two subcutaneous human tumor xenograft models. The studies are performed using conventional assay techniques. Briefly, HL-60 (leukemia, 5×10^5 cells) and PC-3 (prostate, 5×10^6 cells) tumor cells are injected subcutaneously into nude mice (Cr1-CD1-Br-nu, Charles River Laboratory, Wilmington, Mass.). Dosing with compounds began when tumors reached 50 to 100 mm^3. The dose route/schedule for the test compounds is ip/q1d (5×/wk). The test doses are set based on the maximum tolerated dose (MTD). […] The test doses for the efficacy studies are set at ⅓rd the MTD (low dose) and the MTD (high dose). The results are shown in Tables 4 and 5 (HL-60, leukemia) (PC-3, prostate cancer). The length of the treatment phase is dependent on the tumor growth rate for the two models. This treatment phase is typically about 3 weeks for the HL-60 model and about 5 weeks for the PC-3 model. […] Dosing with flavopiridol is for the same time frame as for the experimental compounds in both xenograft models. Tumor volume (twice weekly) and body weights (once weekly) are monitored throughout the course of the treatment phase of the experiment. Tumor sizes are measured by external caliper measurements of protruding tumor. Volumes are calculated using the following formula: volume=½ (a×b2), where b is the smaller of two perpendicular diameters.

A further assay concerns HL-60 human leukemia. The assay is described as follows: HL-60 human leukemia xenograft in nude mice. In kind it is in vivo. The note with it: Table 5, control 8341 ± 5355. The procedure: as §6
For orientation: Xenograft models place foreign cells or tissue in a host animal.

A further assay has as its system herpes simplex virus. The note with it: Schang et al. 1998; cited from earlier work.

Like-named read-outs stand apart in the source and are kept apart here.

cdk1/cyclin B, sequence (P06493 whole entry): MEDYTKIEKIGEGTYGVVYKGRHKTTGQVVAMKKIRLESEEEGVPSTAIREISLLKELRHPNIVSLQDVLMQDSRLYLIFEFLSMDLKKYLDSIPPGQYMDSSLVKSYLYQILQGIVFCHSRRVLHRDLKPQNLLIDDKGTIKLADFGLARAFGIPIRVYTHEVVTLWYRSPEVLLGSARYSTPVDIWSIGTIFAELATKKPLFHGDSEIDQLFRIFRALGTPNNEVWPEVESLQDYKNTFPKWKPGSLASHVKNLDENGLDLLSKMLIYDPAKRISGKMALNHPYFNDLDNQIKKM
cdk1/cyclin B, sequence (P14635 whole entry partner): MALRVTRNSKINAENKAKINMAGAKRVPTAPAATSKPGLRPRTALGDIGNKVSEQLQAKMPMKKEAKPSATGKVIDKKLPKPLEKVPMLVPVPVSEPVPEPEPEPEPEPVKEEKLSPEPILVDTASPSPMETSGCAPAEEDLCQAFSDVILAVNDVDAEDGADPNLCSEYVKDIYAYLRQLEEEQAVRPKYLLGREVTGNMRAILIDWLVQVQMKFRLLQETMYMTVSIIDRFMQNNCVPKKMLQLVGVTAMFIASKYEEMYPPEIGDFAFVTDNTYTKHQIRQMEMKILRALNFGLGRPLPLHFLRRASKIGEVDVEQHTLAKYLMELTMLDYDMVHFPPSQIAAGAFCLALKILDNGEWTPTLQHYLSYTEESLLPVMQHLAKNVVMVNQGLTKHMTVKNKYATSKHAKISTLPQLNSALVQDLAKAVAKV
cdk4/cyclin D1, sequence (P11802 whole entry): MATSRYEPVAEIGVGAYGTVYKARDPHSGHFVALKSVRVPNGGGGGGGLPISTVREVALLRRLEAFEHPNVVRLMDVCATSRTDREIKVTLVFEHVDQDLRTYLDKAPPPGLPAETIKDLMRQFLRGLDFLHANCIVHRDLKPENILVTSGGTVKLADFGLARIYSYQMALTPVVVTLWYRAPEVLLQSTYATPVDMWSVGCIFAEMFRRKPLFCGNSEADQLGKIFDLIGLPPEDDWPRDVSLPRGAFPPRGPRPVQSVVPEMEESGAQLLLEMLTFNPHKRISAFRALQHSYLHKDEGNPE
cdk4/cyclin D1, sequence (P24385 whole entry partner): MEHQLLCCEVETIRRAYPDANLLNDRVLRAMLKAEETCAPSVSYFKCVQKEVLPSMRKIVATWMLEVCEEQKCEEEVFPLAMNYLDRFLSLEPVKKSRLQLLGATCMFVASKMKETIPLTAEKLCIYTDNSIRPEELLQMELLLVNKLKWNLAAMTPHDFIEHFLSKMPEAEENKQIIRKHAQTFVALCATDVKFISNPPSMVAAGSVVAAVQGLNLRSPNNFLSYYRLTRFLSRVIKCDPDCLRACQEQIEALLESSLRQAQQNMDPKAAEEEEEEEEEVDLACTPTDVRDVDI
Protocol for cdk1/cyclin B: (§7) The IC50 values for cdk1/cyclin B, cdk2/cyclin E, and cdk4/cyclin D1 inhibition are determined using the following methods:
The cdk1 sequence (accession number Y00272) is amplified by PCR and cloned into the BamHI and SalI sites of pFASTBAC1 (Life Technologies).
The cyclin B1 sequence (accession number M25753) is amplified by PCR and cloned into the BamHI and SalI sites of pFASTBAC1 (Life Technologies).
(§8) The cDNA for each of the cyclin-dependent kinases (CDK) and the corresponding cyclins are cloned into the baculovirus expression vector, pFASTBAC1 (Life Technologies). The sequences of each of the constructs are confirmed by automated fluorescent DNA sequencing according to the manufacture's protocol (Perkin Elmer/Applied Biosystems Inc).
(§9) The insect cell (Sf9) expression is optimized for each of the CDK/cyclin pairs according to the manufacturer's protocols (Life Technologies).
(§10) The viruses are added to the cells and the culture is incubated at 27° C. for the desired time. The cells are harvested by centrifugation at 3000 rpm for 10 minutes. The cells are snap frozen on dry ice and stored at −80° C.
(§11) Cell extracts are made following a standard procedure. The cell pellet is resuspended in lysis buffer (50 mM HEPES, pH 8.0, 10 mM MgCl2, 1 mM DTT, 2.5 mM EGTA, 1 mM EDTA, 10 mM β-glycerophosphate, 1 mM sodium vanadate, 1 mM sodium fluoride, 1×Protease inhibitor cocktail). The cells are lysed using the microfluidizer (Microfluidics) for 20 minutes. Cell debris is removed by centrifugation at 100,000×g. The cell extracts are aliquoted in 1 ml aliquots, frozen on dry ice, and stored at −80° C.
The kinase reactions are performed following a standard procedure. The enzyme and inhibitor are diluted in kinase buffer (50 mM HEPES, pH 8.0, 10 mM MgCl2, 2.5 mM EGTA, 10 mM β-glycerophosphate, 1 mM sodium vanadate, 1 mM sodium fluoride, and 1 mM DTT) and pre-incubated for 30 minutes. […] The cdk1 enzyme activity is assayed using Histone H1 (Sigma) in the presence of 10 μM ATP for 30 min at room temperature. The reactions are terminated by the addition of 50 μL of 10 mM cold ATP to stop the reactions. The reactions are transferred to a pre-soaked 96-well multi-screen plate containing 30 μL of 100% TCA per well. After incubation for one hour at room temperature, the plates are washed twice with 200 μl of 20% TCA, followed by 200 μl of 10% TCA and finally with 200 μl of 5% TCA. After drying the plates at room temperature, the filter plates are placed in adapter plates (Packard) and 40 μl of Microscint-O® (Packard) is added to each well. Top Seal A film is used to cover the plates before counting in a Top Count Scintillation Counter.
The % remained activity of the indicated Cdk/cyclin kinase complex in the presence of inhibitor is calculated by the ratio of cpm in the presence of inhibitor to cpm in the absence of inhibitor (% Activity=vi/vo×100%).
Protocol for cdk2/cyclin E: as §7
The cdk2 sequence (accession number X62071) is amplified by PCR and cloned into the SpeI and XhoI sites of pFASTBAC1 (Life Technologies). […] This primer would anneal in the 3′ untranslated sequence.
The cyclin E sequence (accession number M73812) is amplified by PCR and cloned into the XbaI and XhoI sites of pFASTBAC1 (Life Technologies).
as §8, §9, §10, §11
The kinase reactions are performed following a standard procedure. […]
The transformed bacteria are grown overnight to saturation, then diluted in YT broth and incubated at 37° C. for 2 h. […] The beads are washed with kinase buffer and then quantitated of Coomassie blue-stained proteins separated by SDS-PAGE using a protein standard of known concentration.

For `CN1CC[C@H](c2c(O)cc(O)c3c(=O)cc(-c4ccccc4Cl)oc23)[C@H](O)C1` [Flavopiridol], in [1], the “concentration giving maximal protection from death” value is 1 µM and the “cell death at day 6” value is given as “approximately 30%”. Also, the SMC growth result in the assay with SMC is “inhibit SMC growth in vitro and in vivo”.

Turning to “trans-N^2-(4-Amino-cyclohexyl)-9-cyclohexyl-N^6-[1-(4-chloro-benzenesulfonyl)-piperidin-4-yl]-9H-purine-2,6-diamine dihydrochloride [Compound 108]”, the 50% inhibitory concentration (IC50) (as a rule, the concentration at which inhibition is half-maximal) on cdk4/cyclin D1 amounted to 170 nM; in the assay on MDA-MB-435 it was 0.14 µM; with NCI-H460, 0.29 µM; in the assay with PC-3, 0.43 µM; in the assay on Colo-205 it was 0.18 µM; at cdk2/cyclin E, 10 nM. The IC50 at cdk1/cyclin B was 7 nM.

Regarding “trans-1-{4-[2-(4-Amino-cyclohexylamino)-9-cyclopentyl-9H-purin-6-ylamino]-piperidin-1-yl}-1-(4-trifluoromethyl-phenyl)-methanone dihydrochloride [Compound 3]”, the IC50 came to 1120 nM on cdk4/cyclin D1 (inhibition of cyclin D1/CDK 4 enzyme activity); 0.25 µM with MDA-MB-435; 0.13 µM in the assay on HL-60; 0.22 µM with Jurkat; 0.66 µM with PC-3; 48 nM at cdk2/cyclin E. Further, the IC50 on cdk1/cyclin B was 55 nM. For the same compound, the “PC-3 Mean Vol. ± SD” value in assay [2] (1 mg/kg ip q1d 5x/wk) worked out at 671 ± 672; in assay [2] (3 mg/kg ip q1d 5x/wk), 785 ± 473. Further, the results for the “HL60 Mean Vol. ± SD” value in the assay with HL-60 human leukemia (1 mg/kg ip q1d 5x/wk) and in the assay with HL-60 human leukemia (3 mg/kg ip q1d 5x/wk) were 6370 ± 4655 and 6092 ± 4278, respectively.

`Cn1cnc2c(NCc3ccccc3)nc(NCCO)nc21` [Olomoucine, 6-(benzylamino)-2-[(2-hydroxyethyl)amino]-9-methylpurine]: in [1], the “concentration giving maximal protection from death” value was 200 µM and the “cell death at day 6” value is recorded as “approximately 30%”. Besides, in the assay on herpes simplex virus, the “replication of herpes simplex virus” value was “inhibited the replication”.
